Results as given in US11638713B2, “Patentiflorin A analogs as antiviral agents” (priority 2019, dated 2023).

Legend:
1617-1 = assay: HIV-1 resistant strain PBMC assay (p24 ELISA), 1617-1 (AZT resistant); assay type: cell-based; settings: Human immunodeficiency virus 1, PBMC, read-out: IC50 against 1617-1
89.6 = assay: HIV-1 clinical strain PBMC assay (p24 ELISA), 89.6; assay type: cell-based; settings: Human immunodeficiency virus 1, PBMC, read-out: IC50 against 89.6
Bal = assay: HIV-1 clinical strain PBMC assay (p24 ELISA), Bal; assay type: cell-based; settings: Human immunodeficiency virus 1, BAL, read-out: IC50 against Bal
HIV = assay: microbe, parasite or virus in culture; assay type: cell-based; settings: for EC50: Human immunodeficiency virus 1, A549
[1] = Cytotoxicity against PBMC; assay type: cell-based; settings: human
SF162 = assay: HIV-1 clinical strain PBMC assay (p24 ELISA), SF162; assay type: cell-based; settings: Human immunodeficiency virus 1, PBMC, read-out: IC50 against SF162
in vitro = settings: human
N119 = assay: HIV-1 resistant strain PBMC assay (p24 ELISA), N119 (nevaripine resistant); assay type: cell-based; settings: Human immunodeficiency virus 1, PBMC, read-out: IC50 against N119
Lav.04 = assay: HIV-1 clinical strain PBMC assay (p24 ELISA), Lav.04; assay type: cell-based; settings: Human immunodeficiency virus 1, PBMC, read-out: IC50 against Lav.04
EBOV (Ebola virus) = assay: microbe, parasite or virus in culture; assay type: cell-based; settings: Zaire ebolavirus; for EC50: A549, read-out: EC50 against EBOV; for inhibition at 0.05 µg/mL: 50 ng/mL
H5N1 virus = assay: microbe, parasite or virus in culture; assay type: cell-based, H5N1 influenza virus; settings: Influenza A virus; for inhibition at 0.05 µg/mL: H5N1, A549, 50 ng/mL; for EC50: H5N1, A549, read-out: EC50 against H5N1 virus
A549 cells = assay: cells; settings: Homo sapiens, A549, read-out: % Inhibition against A549 cells
SARS-CoV-2 = assay: microbe, parasite or virus in culture; assay type: cell-based; settings: Severe acute respiratory syndrome coronavirus 2, HepG2, read-out: EC50 against SARS-CoV-2
[2] = tested on: VSV (vesicular stomatitis virus); assay: microbe, parasite or virus in culture; assay type: cell-based; settings: for inhibition at 0.05 µg/mL: A549, 50 ng/mL; for EC50: A549, read-out: EC50 against VSV
[3] = Repeated-dose toxicity study in mice; settings: 25 and 50 mg/kg, daily i.p. for 28 days
[4] = A549, read-out: % Inhibition against EBOV
[5] = read-out: % Inhibition against H5N1 virus
[6] = CC50 against the host cell line A549
[7] = read-out: % Inhibition against VSV

SMILES: C#Cc1c2c(c(-c3ccc4c(c3)OCO4)c3cc(OC)c(OC)cc13)C(=O)OC2 [Compound 21]
- IC50 (1617-1): 39.3 nM
- IC50 (89.6): 28.7 nM
- IC50 (Bal): 26.5 nM
- EC50 (HIV): 17.8 nM
- CC50 [1]: 25600 nM
- IC50 (SF162): 23.9 nM
- CC50 (in vitro; CC50 (nM)): 207 nM
- IC50 (N119): 42.1 nM
- IC50 (Lav.04): 30.1 nM

SMILES: COc1cc2c(OC3O[C@H](CO)[C@@H]4OC(C)(C)O[C@@H]4[C@H]3O)c3c(c(-c4ccc5c(c4)OCO5)c2cc1OC)C(=O)OC3 (stereo partly drawn) [Compound 32b, 3″, 4″-Acetonide-4-O-β-D-galactopyranosyldiphyllin]
- EC50 (EBOV (Ebola virus)): 0.85 nM
- inhibition at 0.01 µg/mL (EBOV (Ebola virus); A549, 10 ng/mL, read-out: % Inhibition against EBOV): 86.4%
- inhibition at 0.05 µg/mL (EBOV (Ebola virus); [4]): 92.7%
- inhibition at 0.01 µg/mL (H5N1 virus; H5N1, A549, 10 ng/mL, read-out: % Inhibition against H5N1 virus): 91.7%
- inhibition at 0.05 µg/mL (H5N1 virus; [5]): 88.1%
- EC50 (H5N1 virus): 0.77 nM
- inhibition at 0.01 µg/mL (A549 cells): 40.5%
- inhibition at 0.05 µg/mL (A549 cells): 76%
- EC50 (SARS-CoV-2): 3.01 nM
- CC50 (in vitro; CC50 (nM)): 52.7 nM
- CC50 (in vitro; [6]): 30.7 nM
- inhibition at 0.01 µg/mL ([2]; A549, 10 ng/mL, read-out: % Inhibition against VSV): 90.9%
- inhibition at 0.05 µg/mL [2, 7]: 99.6%
- EC50 [2]: 3.15 nM

SMILES: COc1cc2c(OCC#N)c3c(c(-c4ccc5c(c4)OCO5)c2cc1OC)C(=O)OC3 [Compound 17a]
- IC50 (1617-1): 174 nM
- IC50 (89.6): 134 nM
- excised organs at the end of the experiment [3]: appeared as normal
- toxic symptoms (weight loss, skin damage, food and water intake impairment and postual abnormality) and mortality [3]: no toxic symptoms
- IC50 (Bal): 168 nM
- anti-HIV activity in terms of SI values (HIV): much more improved anti-HIV activity
- EC50 (HIV): 72 nM
- CC50 [1]: > 100000 nM
- IC50 (SF162): 122 nM
- CC50 (in vitro; CC50 (nM)): 45200 nM
- IC50 (N119): 203 nM
- IC50 (Lav.04): 151 nM

SMILES: COc1cc2c(OC3OC[C@@H](OC(C)=O)[C@H](OC(C)=O)[C@H]3OC(C)=O)c3c(c(-c4ccc5c(c4)OCO5)c2cc1OC)C(=O)OC3 (stereo partly drawn) [Compound 25a, Peracetylated 7β-D-xylosyloxydiphyllin]
- excised organs at the end of the experiment [3]: appeared as normal
- toxic symptoms (weight loss, skin damage, food and water intake impairment and postual abnormality) and mortality [3]: no toxic symptoms
- anti-HIV activity in terms of SI values (HIV): much more improved anti-HIV activity
- EC50 (HIV): 7 nM
- CC50 (in vitro; CC50 (nM)): 3080 nM

SMILES: C=CCOC(=O)O[C@@H]1COC(Oc2c3c(c(-c4ccc5c(c4)OCO5)c4cc(OC)c(OC)cc24)C(=O)OC3)[C@H](O)[C@H]1OC(C)=O (stereo partly drawn) [Compound 28ab1, 4″-O-allyl oxycarbonyl-3″-acetyl-7-O-β-D-xylosyldiphyllin]
- EC50 (EBOV (Ebola virus)): 18.9 nM
- inhibition at 0.0125 µg/mL (EBOV (Ebola virus); A549, 12.5 ng/mL, read-out: % Inhibition against EBOV): 81%
- inhibition at 0.05 µg/mL (EBOV (Ebola virus); [4]): 82.4%
- inhibition at 0.0125 µg/mL (H5N1 virus; H5N1, A549, 12.5 ng/mL, read-out: % Inhibition against H5N1 virus): 91.8%
- inhibition at 0.05 µg/mL (H5N1 virus; [5]): 86%
- EC50 (H5N1 virus): 5.05 nM
- inhibition at 0.0125 µg/mL (A549 cells): 35.5%
- inhibition at 0.05 µg/mL (A549 cells): 40.9%
- EC50 (SARS-CoV-2): 26.3 nM
- CC50 (in vitro; CC50 (nM)): 513 nM
- CC50 (in vitro; [6]): 190 nM
- inhibition at 0.0125 µg/mL ([2]; A549, 12.5 ng/mL, read-out: % Inhibition against VSV): 85.9%
- inhibition at 0.05 µg/mL [2, 7]: 83.5%
- EC50 [2]: 3.78 nM

SMILES: COc1cc2c(B3OC(C)(C)C(C)(C)O3)c3c(c(-c4ccc5c(c4)OCO5)c2cc1OC)C(=O)OC3 [Compound 19a]
- IC50 (1617-1): 152 nM
- IC50 (89.6): 143 nM
- IC50 (Bal): 188 nM
- anti-HIV activity in terms of SI values (HIV): much more improved anti-HIV activity
- EC50 (HIV): 77.2 nM
- CC50 [1]: > 100000 nM
- IC50 (SF162): 154 nM
- CC50 (in vitro; CC50 (nM)): 10500 nM
- IC50 (N119): 185 nM
- IC50 (Lav.04): 138 nM

SMILES: CCOC(=O)COc1c2c(c(-c3ccc4c(c3)OCO4)c3cc(OC)c(OC)cc13)C(=O)OC2 [Compound 12b]
- IC50 (1617-1): 537 nM
- IC50 (89.6): 376 nM
- IC50 (Bal): 458 nM
- EC50 (HIV): 207 nM
- CC50 [1]: > 100000 nM
- IC50 (SF162): 340 nM
- CC50 (in vitro; CC50 (nM)): > 26800 nM
- IC50 (N119): 638 nM
- IC50 (Lav.04): 312 nM

SMILES: COc1cc2c(OC3O[C@H](CO)[C@H](O)[C@@H]4OC(C)(C)O[C@@H]34)c3c(c(-c4ccc5c(c4)OCO5)c2cc1OC)C(=O)OC3 (stereo partly drawn) [Compound 32d, 2″,3″-Acetonide-4-O-β-D-galactopyranosyldiphyllin]
- EC50 (EBOV (Ebola virus)): 396 nM
- inhibition at 0.1 µg/mL (EBOV (Ebola virus); A549, 100 ng/mL, read-out: % Inhibition against EBOV): 65.5%
- inhibition at 0.5 µg/mL (EBOV (Ebola virus); A549, 500 ng/mL, read-out: % Inhibition against EBOV): 82.7%
- inhibition at 0.1 µg/mL (H5N1 virus; H5N1, A549, 100 ng/mL, read-out: % Inhibition against H5N1 virus): 19.3%
- inhibition at 0.5 µg/mL (H5N1 virus; H5N1, A549, 500 ng/mL, read-out: % Inhibition against H5N1 virus): 83.5%
- EC50 (H5N1 virus): 200 nM
- inhibition at 0.1 µg/mL (A549 cells): -2%
- inhibition at 0.5 µg/mL (A549 cells): 24.3%
- EC50 (SARS-CoV-2): 80.4 nM
- CC50 (in vitro; CC50 (nM)): 52.7 nM
- CC50 (in vitro; [6]): 1350 nM
- inhibition at 0.1 µg/mL ([2]; A549, 100 ng/mL, read-out: % Inhibition against VSV): 100%
- inhibition at 0.5 µg/mL ([2]; A549, 500 ng/mL, read-out: % Inhibition against VSV): 71.7%
- EC50 [2]: 286 nM
